Measurements as given in patent US9145372B2, “Pyridazine derivatives, compositions and methods for treating cognitive impairment” (AGENEBIO, INC., priority 2010, dated 2015).
“Also recorded” adds a separate entry of the source.

Columns and labels:
[1] = molecular target: T1, GABAA α5β3γ2 subtype receptor (Homo sapiens, UniProt P18507+P31644); assay: GABA-gated Cl- current potentiation in Xenopus oocytes expressing GABAA α5β3γ2 (TEVC); assay type: cell-based; details: for activation at 1 µM: read-out: GABA α5 EC50 % potentiation; for positive allosteric modulation of GABA at GABAA α5 receptors: concentration response 0.01-100 μM, FIGS. 1(A)-(D)
T1 construct: myc-His (vector-encoded); expressed in transfected cells; host or cells: Xenopus laevis oocytes injected with cDNAs
T1 sequence (P31644 32-462): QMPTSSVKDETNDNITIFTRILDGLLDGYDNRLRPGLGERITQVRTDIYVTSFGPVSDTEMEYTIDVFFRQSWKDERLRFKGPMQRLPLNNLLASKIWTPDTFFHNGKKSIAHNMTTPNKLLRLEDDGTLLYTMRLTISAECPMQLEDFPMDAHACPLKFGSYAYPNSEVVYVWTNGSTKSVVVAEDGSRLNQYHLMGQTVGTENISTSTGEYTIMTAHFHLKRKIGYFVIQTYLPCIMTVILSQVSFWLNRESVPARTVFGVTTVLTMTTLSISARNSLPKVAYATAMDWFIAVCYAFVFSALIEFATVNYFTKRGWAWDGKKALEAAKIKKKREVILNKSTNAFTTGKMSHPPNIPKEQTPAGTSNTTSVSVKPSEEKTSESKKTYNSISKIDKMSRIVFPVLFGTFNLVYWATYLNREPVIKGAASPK
T1 sequence (P28472 26-473 partner): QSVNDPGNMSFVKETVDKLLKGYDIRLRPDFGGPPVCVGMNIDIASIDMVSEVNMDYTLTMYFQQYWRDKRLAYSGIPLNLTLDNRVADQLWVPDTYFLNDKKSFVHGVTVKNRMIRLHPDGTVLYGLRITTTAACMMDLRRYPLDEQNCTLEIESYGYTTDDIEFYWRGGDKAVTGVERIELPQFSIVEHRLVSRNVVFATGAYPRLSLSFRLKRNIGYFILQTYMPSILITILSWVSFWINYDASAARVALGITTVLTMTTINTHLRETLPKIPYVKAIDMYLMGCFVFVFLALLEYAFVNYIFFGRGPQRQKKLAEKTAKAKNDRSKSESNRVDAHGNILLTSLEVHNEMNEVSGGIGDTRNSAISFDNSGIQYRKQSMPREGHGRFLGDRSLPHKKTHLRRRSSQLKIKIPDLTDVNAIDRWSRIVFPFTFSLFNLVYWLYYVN
T1 sequence (P18507 40-467 limits assumed): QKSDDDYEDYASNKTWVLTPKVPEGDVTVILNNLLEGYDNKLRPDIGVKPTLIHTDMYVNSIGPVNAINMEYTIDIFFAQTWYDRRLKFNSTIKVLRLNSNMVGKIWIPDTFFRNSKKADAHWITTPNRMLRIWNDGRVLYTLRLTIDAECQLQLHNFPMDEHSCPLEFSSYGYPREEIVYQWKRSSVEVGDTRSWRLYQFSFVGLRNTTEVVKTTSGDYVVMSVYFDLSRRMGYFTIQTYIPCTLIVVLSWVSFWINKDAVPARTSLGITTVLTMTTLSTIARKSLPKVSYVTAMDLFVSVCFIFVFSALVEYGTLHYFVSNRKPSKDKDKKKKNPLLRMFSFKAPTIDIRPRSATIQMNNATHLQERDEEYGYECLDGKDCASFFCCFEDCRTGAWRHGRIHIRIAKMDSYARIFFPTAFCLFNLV
From the text: (§1) Step 1: Establish Clones of GABAAR Subunits (α5, β3, γ2, α1, α2 and α3) and Prepare the Corresponding cRNAs: Human clones of GABAA-R α5, β3, γ2, α1, α2 and α3 subunits are obtained from commercial resources (e.g., OriGene, http://www.origene.com and Genescript, http://www.genescript.com). These clones are engineered into pRC, pCDM, pcDNA, and pBluescript KSM vector (for oocyte expression) or other equivalent expression vectors. Conventional transfection agents (e.g., FuGene, Lipofectamine 2000, or others) are used to transiently transfect host cells.
Adult female Xenopus laevis frogs were purchased from Nasco (Fort Atkinson, Wis.). […] All chemicals used were of reagent grade. […] Stock solutions of Diazepam, Flumazenil and compounds of the present invention were prepared in dimethyl sulfoxide (DMSO) and then diluted to an appropriate concentration with the extracellular solution just before use. To avoid adverse effects from DMSO exposure, the final concentration of DMSO was not higher than 0.3% (v/v).
Upon conclusion of compound testing and successful washout, a 1.0 μM Diazepam was tested and used for comparative activity on the two GABAAR subtypes.
Other concentrations of the test compound may also be tested following the same protocol.
Results are expressed as mean±SEM.

[2] = molecular target: T2, GABAA α1 receptors (α1β2γ2) (Homo sapiens, UniProt P14867+P18507); assay: GABA-gated Cl- current in Xenopus oocytes expressing GABAA α1β2γ2 (TEVC), off-target activity; assay type: cell-based; details: concentration response 0.01-100 μM; FIGS. 1(A)-(D)
T2 construct: expressed in transfected cells; host or cells: Xenopus laevis oocytes injected with cDNAs
T2 sequence (P14867 28-456): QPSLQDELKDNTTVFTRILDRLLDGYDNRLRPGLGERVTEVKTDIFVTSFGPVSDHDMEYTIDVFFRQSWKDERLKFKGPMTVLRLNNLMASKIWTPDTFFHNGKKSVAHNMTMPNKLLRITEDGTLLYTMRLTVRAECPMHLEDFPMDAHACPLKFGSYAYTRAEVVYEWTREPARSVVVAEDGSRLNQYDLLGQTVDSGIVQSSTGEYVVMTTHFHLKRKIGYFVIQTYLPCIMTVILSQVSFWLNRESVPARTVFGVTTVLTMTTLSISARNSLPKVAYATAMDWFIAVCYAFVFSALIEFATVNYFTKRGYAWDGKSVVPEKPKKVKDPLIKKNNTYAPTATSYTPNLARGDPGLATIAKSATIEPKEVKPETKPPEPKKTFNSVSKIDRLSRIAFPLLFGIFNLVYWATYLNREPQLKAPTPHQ
T2 sequence (P47870 25-512 partner limits assumed): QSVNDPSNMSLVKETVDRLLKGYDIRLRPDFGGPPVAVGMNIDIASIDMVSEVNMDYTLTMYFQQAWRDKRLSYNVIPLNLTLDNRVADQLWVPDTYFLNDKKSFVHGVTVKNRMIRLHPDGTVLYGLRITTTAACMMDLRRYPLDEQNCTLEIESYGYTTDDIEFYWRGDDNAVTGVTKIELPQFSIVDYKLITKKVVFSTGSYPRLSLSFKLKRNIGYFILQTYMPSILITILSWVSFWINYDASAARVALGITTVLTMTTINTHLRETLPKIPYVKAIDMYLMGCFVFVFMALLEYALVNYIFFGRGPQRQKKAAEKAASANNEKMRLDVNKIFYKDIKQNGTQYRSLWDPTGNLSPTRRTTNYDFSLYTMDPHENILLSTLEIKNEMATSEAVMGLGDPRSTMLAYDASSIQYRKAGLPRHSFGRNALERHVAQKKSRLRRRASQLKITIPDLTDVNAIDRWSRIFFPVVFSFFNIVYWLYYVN
T2 sequence (P18507 40-467 limits assumed): T1 sequence (P18507 40-467 limits assumed)
From the text: as §1
Xenopus oocytes were isolated according to previously published procedures (see, e.g., Goldin et al. Methods Enzymol. 207:266-279 (1992)). The isolated Xenopus oocytes were injected with GABAAR cDNAs (1:1:1 ratio for a total volume of 1 ng of α1βγ2 or α5β3γ2) cloned into mammalian expression vectors. In particular, α1, β2, γ2 were cloned into pcDNA3.1. and α5 and β3 were cloned into pcDNA3.1 myc-His. Vectors were verified by partial sequencing (DNA Core Facility, University of Southern California, USA). After injection, oocytes were stored in incubation medium (Modified Barth's Saline (MBS) supplemented with 2 mM sodium pyruvate, 0.5 mM theophylline and 50 mg/L gentamycin), in petri dishes (VWR, San Dimas, Calif.). All solutions were sterilized by passage through 0.22 μM filters. […] Oocytes were used in experiments for up to 5 days after injection.
A high-throughput two-electrode voltage clamp (TEVC) system (OpusXpress A6000; Molecular Devices, Union City, Calif.), which automates the impalement of oocytes, fluid delivery and current recording from 8 oocytes in parallel, was used to carry out all electrophysiological recordings.
Xenopus Oocytes expressing GABAA-R α5β3γ2 or α1β2γ2 subtype, as prepared in section (A) above, were placed in 8 chambers of OpusXpress and perfused by MBS at 3 mL/min. Glass electrodes back-filled with 3 M KCl (0.5-3 megaohms) were used. Membrane potential of oocytes was voltage-clamped at −60 mV. Oocytes with holding current larger than 0.5 μA were discarded.
Data for each experimental point were obtained from 4 or more Xenopus oocytes and from at least two different frogs. The n refers to the number of Xenopus oocytes tested. Results are expressed as mean±SEM. […] Prism (GraphPAD Software, San Diego, Calif.) and Excel were used to perform curve fitting and statistical analyses.

GABAA α5 receptor = GABAA α5 receptor (Rattus norvegicus, UniProt P18508+P19969); assay: GABAA α5 receptor occupancy in vivo with Ro 15-4513 tracer (hippocampus vs cerebellum); details: tracer 1 μg/kg, i.v., after vehicle administration
From the text: Adult male Long Evans rats (265-295 g, Charles River, Portage, Mich., n=4/group) were used for GABAA α5 receptor occupancy studies. Rats were individually housed in ventilated stainless-steel racks on a 12:12 light/dark cycle. Food and water were available ad libitum.
Ro 15-4513 was used as a receptor occupancy (RO) tracer for GABAA α5 receptor sites in the hippocampus and cerebellum. Ro 15-4513 was chosen as the tracer based on its selectivity for GABAA α5 receptors relative to other alpha subunit containing GABAA receptors and because it has been successfully used for GABAA α5 RO studies in animals and humans (see, e.g., Lingford-Hughes et al., J. Cereb. Blood Flow Metab. 22:878-89 (2002); Pym et al, Br. J. Pharmacol. 146: 817-825 (2005); and Maeda et al., Synapse 47: 200-208 (2003)). Ro 15-4513 (1 μg/kg), was dissolved in 25% hydroxyl-propyl beta-cyclodextrin and administered i.v. 20′ prior to the RO evaluations. Methyl 3,5-diphenylpyridazine-4-carboxylate (0.1-10 mg/kg) was synthesized by Nox Pharmaceuticals (India) and was dissolved in 25% hydroxyl-propyl beta-cyclodextrin and administered i.v. 15′ prior to tracer injection.
The rats were sacrificed by cervical dislocation 20′ post tracer injection. The whole brain was rapidly removed, and lightly rinsed with sterile water. Trunk blood was collected in EDTA coated eppendorf tubes and stored on wet ice until study completion. Hippocampus and cerebellum were dissected and stored in 1.5 ml eppendorf tubes, and placed on wet ice until tissue extraction. In a drug naïve rat, six cortical brain tissues samples were collected for use in generating blank and standard curve samples.
Acetonitrile containing 0.1% formic acid was added to each sample at a volume of four times the weight of the tissue sample. For the standard curve (0.1-30 ng/g) samples, a calculated volume of standard reduced the volume of acetonitrile. The sample was homogenized (FastPrep-24, Lysing Matrix D; 5.5 m/s, for 60 seconds or 7-8 watts power using sonic probe dismembrator; Fisher Scientific) and centrifuged for 16-minutes at 14,000 rpm. The (100 μl) supernatant solution was diluted by 300 μl of sterile water (pH 6.5). This solution was then mixed thoroughly and analyzed via LC/MS/MS for […] (tracer) and methyl 3,5-diphenylpyridazine-4-carboxylate.
Receptor occupancy was determined by the ratio method which compared occupancy in the hippocampus (a region of high GABAA α5 receptor density) with occupancy in the cerebellum (a region with low GABAA α5 receptor density) and additionally by a high dose of the GABAA α5 negative allosteric modulator L-655,708 (10 mg/kg, i.v.) to define full occupancy.

Sequence of GABAA α5 receptor (P19969 32-464 limits assumed): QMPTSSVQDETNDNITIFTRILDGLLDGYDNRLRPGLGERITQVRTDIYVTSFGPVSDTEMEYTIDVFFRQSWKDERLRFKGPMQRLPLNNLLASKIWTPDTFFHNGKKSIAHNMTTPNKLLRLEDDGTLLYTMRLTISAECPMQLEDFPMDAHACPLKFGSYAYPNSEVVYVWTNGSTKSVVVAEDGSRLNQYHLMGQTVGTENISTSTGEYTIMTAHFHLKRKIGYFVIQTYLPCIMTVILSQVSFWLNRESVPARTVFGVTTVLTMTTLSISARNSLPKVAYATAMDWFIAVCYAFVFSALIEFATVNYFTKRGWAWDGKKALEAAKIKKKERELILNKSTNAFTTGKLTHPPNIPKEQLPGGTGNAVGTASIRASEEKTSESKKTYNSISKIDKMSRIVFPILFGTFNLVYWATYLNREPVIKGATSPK
Sequence of GABAA α5 receptor (P18508 39-466): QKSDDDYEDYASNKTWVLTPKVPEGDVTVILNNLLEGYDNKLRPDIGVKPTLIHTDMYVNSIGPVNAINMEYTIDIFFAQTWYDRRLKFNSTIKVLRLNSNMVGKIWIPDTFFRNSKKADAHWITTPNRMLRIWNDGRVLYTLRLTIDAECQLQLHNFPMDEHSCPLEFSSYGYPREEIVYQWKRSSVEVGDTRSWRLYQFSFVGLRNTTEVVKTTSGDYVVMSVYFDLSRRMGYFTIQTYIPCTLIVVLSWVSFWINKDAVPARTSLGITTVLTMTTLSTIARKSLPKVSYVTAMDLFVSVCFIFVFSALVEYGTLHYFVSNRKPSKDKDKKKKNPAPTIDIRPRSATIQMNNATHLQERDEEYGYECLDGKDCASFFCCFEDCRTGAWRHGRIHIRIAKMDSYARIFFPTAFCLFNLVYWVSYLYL
Sequence of GABAA α5 receptor (P63079 26-473 partner): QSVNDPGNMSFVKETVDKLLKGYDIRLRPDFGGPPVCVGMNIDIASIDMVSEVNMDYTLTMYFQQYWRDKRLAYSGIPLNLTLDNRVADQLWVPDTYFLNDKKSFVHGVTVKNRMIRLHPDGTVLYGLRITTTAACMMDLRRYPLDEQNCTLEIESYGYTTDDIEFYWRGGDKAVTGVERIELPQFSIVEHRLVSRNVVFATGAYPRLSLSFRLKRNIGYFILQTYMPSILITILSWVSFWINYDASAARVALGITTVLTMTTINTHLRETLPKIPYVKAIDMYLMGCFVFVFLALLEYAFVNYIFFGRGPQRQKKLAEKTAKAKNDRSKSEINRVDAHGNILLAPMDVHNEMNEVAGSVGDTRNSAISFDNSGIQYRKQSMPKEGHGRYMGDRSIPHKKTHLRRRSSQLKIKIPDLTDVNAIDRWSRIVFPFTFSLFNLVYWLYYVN

SMILES	activation at 1 µM [1] [%]	positive allosteric modulation of GABA at GABAA α5 receptors [1]	positive allosteric modulation at GABAA α1 receptors [2]	levels of Ro 15-4513 in hippocampus compared with cerebellum (GABAA α5 receptor) [fold]
NC(=O)c1c(-c2ccccc2)cnnc1-c1ccccc1 [Compound 3]	11.1			
CN(C)C(=O)c1c(-c2ccccc2)cnnc1-c1ccccc1 [Compound 4]	42	strong positive allosteric modulation	markedly reduced positive allosteric modulation	
O=C(NCc1ccccc1)c1c(-c2ccccc2)cnnc1-c1ccccc1 [Compound 9]	10			
COc1cccc(-c2nncc(-c3ccccc3)c2C(=O)O)c1 [Compound 11]	19.2			
CCc1coc(-c2c(-c3ccccc3)cnnc2-c2ccccc2)n1 [Compound 22, 2-(3,5-diphenylpyridazin-4-yl)-4-ethyloxazole]	8.6			
COc1cccc(-c2nncc(-c3ccccc3)c2-c2nc(C)co2)c1 [Compound 24]	6			
COC(=O)c1coc(-c2c(-c3ccccc3)cnnc2-c2ccccc2)n1 [Compound 26, Methyl 2-(3,5-diphenylpyridazin-4-yl)oxazole-4-carboxylate]	15.8	strong positive allosteric modulation	markedly reduced positive allosteric modulation; also recorded: no evidence of activity	
CCOC(=O)c1ncn2c1CN(C)C(=O)c1cc(N=[N+]=[N-])ccc1-2 [Ro 15-4513]				> 5

The next lines start with results.

activation at 1 µM [1] [%]	positive allosteric modulation of GABA at GABAA α5 receptors [1]	SMILES	positive allosteric modulation at GABAA α1 receptors [2]	levels of Ro 15-4513 in hippocampus compared with cerebellum (GABAA α5 receptor) [fold]
8.5		CNC(=O)c1c(-c2ccccc2)cnnc1-c1ccccc1 [Compound 1, N-methyl-3,5-diphenylpyridazine-4-carboxamide]		
8.2		CC(C)NC(=O)c1c(-c2ccccc2)cnnc1-c1ccccc1 [Compound 2]		
4.6		O=C(c1c(-c2ccccc2)cnnc1-c1ccccc1)N(Cc1ccccc1)Cc1ccccc1 [Compound 5]		
5.3		CC1COC(c2c(-c3ccccc3)cnnc2-c2ccccc2)=N1 (centres unmarked) [Compound 21, 2-(3,5-diphenylpyridazin-4-yl)-4-methyl-4,5-dihydrooxazole]		
8.6		COC(=O)C1COC(c2c(-c3ccccc3)cnnc2-c2ccccc2)=N1 (centres unmarked) [Compound 25, Methyl 2-(3,5-diphenylpyridazin-4-yl)-4,5-dihydrooxazole-4-carboxylate]		
30.5	strong positive allosteric modulation	COC(=O)c1coc(-c2c(-c3ccccc3)cnnc2-c2cccc(Cl)c2)n1 [Compound 27]	markedly reduced positive allosteric modulation	
